Measured values reported in patent US7815907B2, “Antibodies to insulin-like growth factor I receptor” (Amgen Fremont Inc., priority 2001, dated 2010).

What was measured:
3T3/IGF-IR cell tumors = experiment: Growth inhibition of 3T3/IGF-IR cell tumors; type: in vivo, athymic (nu/nu) mice
Experimental: We tested whether anti-IGF-IR antibodies of the invention would function to inhibit tumor growth. We induced tumors as described above (Example VIII) and when established, palpable tumors formed (i.e. 250 mm^3, within 6-9 days), we treated the mice with a single, 0.20 ml dose of antibody by intraperitoneal injection. We measured tumor size by Vernier calipers across two diameters every third day and calculated the volume using the formula (length×[width]^2)/2 using methods established by Geran, et al., “Protocols for screening chemical agents and natural products against animal tumors and other biological systems,” Cancer Chemother. Rep. 3:1-104.
Tumors were induced in nude mice as described in Example IX. Mice with established subcutaneous tumors of approximately 250 mm^3 were treated on days 1, 8, 15 and 22 with various amounts of 2.13.2 antibody (i.p.) or 7.5 mg/kg adriamycin (i.v.), either as single agents or in combination, as described in Example IX.
Tumors were induced in nude mice as described in Example IX. Mice with large established subcutaneous tumors of slightly less than 2000 mm^3 were treated on days 1 and 8 with various amounts of 2.13.2 antibody (i.p.) or 7.5 mg/kg adriamycin (i.v.), either as single agents or in combination, as described in Example IX. […] Control, antibody alone and adriamycin alone animal groups were terminated at day 5, when the tumor size exceeded 2000 mm^3.

[1] = Pharmacokinetics after single intravenous injection; type: in vivo; settings: cynomolgus monkeys, 3, 30 or 100 mg/kg intravenously
Experimental: To evaluate the pharmacokinetics of the anti-IGF-IR antibodies, cynomolgus monkeys were injected intravenously with 3, 30 or 100 mg/kg of 2.13.2 antibody in an acetate buffer. Serum was collected from the monkeys at various time points and anti-IGF-IR antibody concentrations in the monkeys were determined for a period of up to ten weeks levels. To quantitate functional serum antibody levels, the extracellular domain of the human IGF-IR (IGF-I-sR, R&D Systems, Catalog # 391GR) was bound to 96-well plates. Monkey serum (diluted between 1:100 and 1:15,000) was added to the assay plates so that each sample would be within the linear range of the standard curve and incubated under conditions in which any anti-IGF-IR antibody would bind to IGF-I-sR. After washing the plates, a labeled anti-human IgG antibody was added to the plates and incubated under conditions in which the anti-human IgG antibody would bind to the anti-IGF-IR antibody. The plates were then washed and developed, and a control standard curve and linear regression fits used to quantitate the amount of anti-IGF-IR antibodies.

IGF-IR = IGF-IR (Homo sapiens, UniProt P08069); experiment: IGF-IR and IGF-IR phosphotyrosine levels in 3T3-IGF-IR tumors in vivo (ELISA); parameters: expressed in transfected cells; host or cells: NIH-3T3 (mouse fibroblasts); species or system athymic (nu/nu) mice
Text: We determined whether the effects of the antibodies of the invention on IGF-IR as described in the previous examples would occur in vivo. We induced tumors in athymic mice according to published methods (V. A. Pollack et al., “Inhibition of epidermal growth factor receptor-associated tyrosine phosphorylation in human carcinomas with CP-358,774: Dynamics of receptor inhibition in situ and antitumor effects in athymic mice,” J. Pharmacol. Exp. Ther. 291:739-748 (1999). Briefly, we injected IGF-IR-transfected NIH-3T3 cells (5×10^6) subcutaneously into 3-4 week-old athymic (nu/nu) mice with 0.2 ml of Matrigel preparation. We then injected mice with an antibody of the invention intraperitoneally after established (i.e. approximately 400 mm^3) tumors formed.
After 24 hours, we extracted the tumors, homogenized them and determined the level of IGF-IR. To determine IGF-IR levels, we diluted the SC-713 antibody in Blocking buffer to a final concentration of […] and added 100 μl to each well of a Reacti-Bind Goat anti-rabbit (GAR) coated plate (Pierce). We incubated the plates at room temperature for 1 hour with shaking and then washed the plates five times with wash buffer. We then weighed tumor samples that had been prepared as described above and homogenized them in lysis buffer (1 ml/100 mg). We diluted 12.5 μl of tumor extract with lysis buffer to a final volume of 100 μl and added this to each well of a 96-well plate. We incubated the plates at room temperature with shaking for 1-2 hours and then washed the plates five times with Wash buffer. We then added 100 μl HRP-PY54 or biotinylated anti-IGF-IR antibody in Blocking buffer to each well and incubated at room temperature with shaking for 30 minutes. We then washed the plates five times with wash buffer and developed the plates. […] We then quantitated the signal by shaking for 10 seconds and measuring OD450nm. […]
Tumors were induced in nude mice as described in Example VIII. […] Tumors were extracted and IGF-IR levels were measured by ELISA as described in Example VIII.

[2] = intraperitoneal injection, tumors extracted after 24 hours

## 2.13.2: human IgG2κ monoclonal antibody specific for IGF-IR from hybridoma 2.13.2 (ATCC PTA-2788)
3T3/IGF-IR cell tumors; antibody i.p. on days 1, 8, 15 and 22, single agent
  tumor cell growth: inhibits tumor cell growth
3T3/IGF-IR cell tumors; combination with single dose 7.5 mg/kg adriamycin i.v.
  growth delay versus treatment with the antibody or adriamycin alone: 7 days
3T3/IGF-IR cell tumors; days 1, 8, 15 and 22, with 7.5 mg/kg adriamycin i.v.
  tumor cell growth in combination with adriamycin: enhances inhibition of tumor cell growth
3T3/IGF-IR cell tumors; single dose antibody with single dose 7.5 mg/kg adriamycin i.v.
  effect on effectiveness of adriamycin: enhanced the effectiveness of adriamycin
3T3/IGF-IR cell tumors; single treatment i.p., antibody alone
  tumor growth: inhibited the growth
3T3/IGF-IR cell tumors; tumors slightly less than 2000 mm^3, days 1 and 8, with 7.5 mg/kg adriamycin i.v.
  efficacy against large tumors in combination with adriamycin: highly efficacious
[1]
  dose proportionality of serum amounts: dose-proportional
  volume distribution: 74 to 105 mL/kg
IGF-IR; 125 μg by intraperitoneal injection
  IGF-IR receptor levels in tumors over time: down-regulated
IGF-IR; [2]
  IGF-IR phosphotyrosine (phosphorylated IGF-IR) in tumors: decrease
  total IGF-IR protein in tumors: decrease
